Laboratory results reported in US9278934B2, “Method for producing fine particles of aripiprazole anhydride crystals B” (OTSUKA PHARMACEUTICAL CO., LTD., priority 2011, dated 2016).

Assay: Hygroscopicity: water content before and after 24 hours in a desiccator at 60° C. and humidity 100%
Type: physicochemical
Settings: for Water content (%) after 24 hours: after 24 hours in a desiccator at a temperature of 60° C. and a humidity of 100%; for Water content (%) at the start: obtained crystals, before conditioning
Protocol: Aripiprazole anhydride crystals B have a low hygroscopicity; and, for example, maintain a water content of 0.4% or less, and further 0.1% or less, after 24 hours of conditioning in a desiccator set at a temperature of 60° C. and a humidity of 100%. Known methods for measuring water content can be used as long as they are commonly used for measuring the water content of crystals. For example, a method such as the Karl Fischer method can be used.
Fine particles of the crystals after heating treatment (drying) are the fine particles of anhydride crystals B of aripiprazole. These particles have the physicochemical properties (1) to (5) described above, and also have a low hygroscopicity; specifically, the water content thereof after 24 hours of conditioning in a desiccator adjusted to a temperature of 60° C. and a humidity of 100% is 0.4% or less, further 0.2% or less, and furthremore 0.1% or less.

Structure (SMILES) | Water content (%) after 24 hours [%] | Water content (%) after 24 hours (listed as anhydride crystals B of aripiprazole) [%] | hygroscopicity (left to stand for 24 hours in a desiccator at 60° C. and a humidity of 100%) [%] | Water content (%) at the start [%]
O=C1CCc2ccc(OCCCCN3CCN(c4cccc(Cl)c4Cl)CC3)cc2N1 [Aripiprazole anhydride crystals B, 7-{4-[4-(2,3-dichlorophenyl)-1-piperazinyl]butoxy}-3,4-dihydrocarbostyril] | ≤ 0.4 | ≤ 0.4 |  | 
O=C1CCc2ccc(OCCCCN3CCN(c4cccc(Cl)c4Cl)CC3)cc2N1 [Example 1, 7-{4-[4-(2,3-dichlorophenyl)-1-piperazinyl]butoxy}-3,4-dihydrocarbostyril] | 0.10 |  | < 4 | 0.11
O=C1CCc2ccc(OCCCCN3CCN(c4cccc(Cl)c4Cl)CC3)cc2N1 [Example 2, 7-{4-[4-(2,3-dichlorophenyl)-1-piperazinyl]butoxy}-3,4-dihydrocarbostyril] | ≤ 0.01 |  |  | 0.01
O=C1CCc2ccc(OCCCCN3CCN(c4cccc(Cl)c4Cl)CC3)cc2N1 [Example 3, 7-{4-[4-(2,3-dichlorophenyl)-1-piperazinyl]butoxy}-3,4-dihydrocarbostyril] | 0.17 |  |  | 0.08
